Columns and labels:
IL-1β release = IL-1β release assay (THP-1 cells, PMA, LPS, nigericin); assay type: cell-based; conditions: Homo sapiens, LPS 250 ng/mL, nigericin 20 μM, cleaved IL-1β in media
Procedure: Approximately 1.5 million THP-1 cells were plated in each well of a 6-well TC plate and incubated with 40 nM PMA in RPMI (10% FBS, 1% Penstrep) for 24 hours. The media was then removed and cells were rested in RPMI (10% FBS, 1% Penstrep) for 24 hours after which time the media was removed and cells were pre-treated for 2 hours with various concentrations of compounds of interest (typically serial 3-fold dilution in RPMI+5% FBS, concentrations ranging from 1 μM to 0.5 nM) in RPMI (5% FBS). The media was again removed and cells were incubated with 250 ng/mL LPS and compounds of interest (concentrations as above) in RMPI (5% FBS) for 2 hours. The media was removed for a last time and cells were incubated with 20 μM nigericin and compounds of interest (concentrations as above) in Opti-MEM for 30 minutes. Cell media was then collected and the amount of cleaved IL-1β was determined using a JESS instrument (Protein Simple) and standard protocols. Cleaved Il-1β antibody was obtained from Cell Signaling (catalogue #83186S) and was used at 1:20 dilution in antibody diluent 2. Protein Simple 1× anti-Rabbit HRP secondary antibody was used along with Protein Simple luminol and peroxide for chemiluminescent detection. Primary antibody incubation time was increased from 30 minutes to 60 minutes.

[1] = molecular target: T1, full-length recombinant human NEK7 (Homo sapiens, UniProt Q8TDX7); assay: NEK7 enzymatic assay; assay type: biochemical; conditions: recombinant human NEK7, casein substrate, radiolabelled ATP
T1 construct: full-length recombinant human NEK7; GST (N); purchased SignalChem NO9-10G; host or cells: Sf9 insect cells (baculovirus)
T1 sequence (Q8TDX7 whole entry): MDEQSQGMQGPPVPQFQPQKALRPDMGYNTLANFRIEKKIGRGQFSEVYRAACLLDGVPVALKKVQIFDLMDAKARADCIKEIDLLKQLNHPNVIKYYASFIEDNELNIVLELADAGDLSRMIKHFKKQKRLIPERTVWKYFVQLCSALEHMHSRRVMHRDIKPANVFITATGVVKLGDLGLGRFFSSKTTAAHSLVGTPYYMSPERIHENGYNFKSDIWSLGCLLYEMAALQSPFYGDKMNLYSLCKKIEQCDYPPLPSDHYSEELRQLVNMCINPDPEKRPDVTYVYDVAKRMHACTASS
Method in brief: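 Full-length GST-tagged human NEK7 from Sf9 cells (assay concentration 70 nM) was used with casein (assay concentration 20 μM) in Hepes pH 7.5 buffer, 1% DMSO, and compound (3-fold dilutions, 10 μM to 0.5 nM) was preincubated 20 min at room temperature. Radiolabelled ATP was added for 2 h, phosphorylation was read on P81 paper, and IC50 was fitted from % activity remaining versus vehicle.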

Structure (SMILES)	IC50 (IL-1β release) [nM]	IC50 [1] [nM]
Nc1ncnc2c1c(-c1ccc(NC(=O)Nc3ccc(CN4CCN(CCF)CC4)c(C(F)(F)F)c3)c(F)c1)cn2C1CC1 [Example I-84, 1-(4-(4-amino-7-cyclopropyl-7H-pyrrolo[2,3-d]pyrimidin-5-yl)-2-fluorophenyl)-3-(4-((4-(2-fluoroethyl)piperazin-1-yl)methyl)-3-(trifluoromethyl)phenyl)urea]	< 50	< 100
CN1CCN(Cc2ncc(NC(=O)Nc3ccc(-c4cn(C5CC5)c5ncnc(N)c45)cc3F)cc2C(F)(F)F)CC1 [Example I-68, 1-(4-(4-amino-7-cyclopropyl-7H-pyrrolo[2,3-d]pyrimidin-5-yl)-2-fluorophenyl)-3-(6-((4-methylpiperazin-1-yl)methyl)-5-(trifluoromethyl)pyridin-3-yl)urea]	50 to 250	100 to 500
CN1CCC(Oc2ccc(NC(=O)Nc3ccc(-c4cn(C5CC5)c5ncnc(N)c45)cc3F)cc2C(F)(F)F)CC1 [Example I-47, 1-(4-(4-amino-7-cyclopropyl-7H-pyrrolo[2,3-d]pyrimidin-5-yl)-2-fluorophenyl)-3-(4-((1-methylpiperidin-4-yl)oxy)-3-(trifluoromethyl)phenyl)urea]	< 50	< 100
CN1CCN(C(=O)c2ccc(NC(=O)Nc3ccc(-c4cn(C5CC5)c5ncnc(N)c45)cc3F)cc2C(F)(F)F)CC1 [Example I-10]	50 to 250	100 to 500
CN1CCC(Oc2ccc(NC(=O)Nc3ccc(-c4cn(C5CC5)c5ncnc(N)c45)cc3F)cc2C(F)(F)F)C(F)C1 (single isomer, unassigned) [Example I-90, 1-(4-(4-amino-7-cyclopropyl-7H-pyrrolo[2,3-d]pyrimidin-5-yl)-2-fluorophenyl)-3-(4-((3-fluoro-1-methylpiperidin-4-yl)oxy)-3-(trifluoromethyl)phenyl)urea]	< 50	< 100
CN1CCN(Cc2ccc(NC(=O)Nc3ccc(-c4cn(C5CC5)c5ncnc(N)c45)cc3F)cc2C2CC2)CC1 [Example I-40, 1-(4-(4-amino-7-cyclopropyl-7H-pyrrolo[2,3-d]pyrimidin-5-yl)-2-fluorophenyl)-3-(3-cyclopropyl-4-((4-methylpiperazin-1-yl)methyl)phenyl)urea]	250 to 1000	100 to 500
COCCN1CCN(Cc2ccc(NC(=O)Nc3ccc(-c4cn(C5CC5)c5ncnc(N)c45)cc3F)cc2C(F)(F)F)CC1 [Example I-43, 1-(4-(4-amino-7-cyclopropyl-7H-pyrrolo[2,3-d]pyrimidin-5-yl)-2-fluorophenyl)-3-(4-((4-(2-methoxyethyl)piperazin-1-yl)methyl)-3-(trifluoromethyl)phenyl)urea]	50 to 250	< 100
CN1CCN(Cc2ccc(NC(=O)Nc3ccc(-c4cn(C)c5ncnc(N)c45)cc3F)cc2C(F)(F)F)CC1 [Example I-18, 1-(4-(4-amino-7-methyl-7H-pyrrolo[2,3-d]pyrimidin-5-yl)-2-fluorophenyl)-3-(4-((4-methylpiperazin-1-yl)methyl)-3-(trifluoromethyl)phenyl)urea]	< 50	< 100
CN1CCN(Cc2ccc(NC(=O)Nc3ccc(-c4cn(C5CC5)c5ncnc(N)c45)cc3F)cc2C(F)(F)F)CC1 [Example I-34, 1-(4-(4-amino-7-cyclopropyl-7H-pyrrolo[2,3-d]pyrimidin-5-yl)-2-fluorophenyl)-3-(4-((4-methylpiperazin-1-yl)methyl)-3-(trifluoromethyl)phenyl)urea]	< 50	< 100
Nc1ncnc2c1c(-c1ccc(NC(=O)Nc3ccc(CN4CCNCC4)c(C(F)(F)F)c3)c(F)c1)cn2C1CC1 [Example I-79, 1-(4-(4-amino-7-cyclopropyl-7H-pyrrolo[2,3-d]pyrimidin-5-yl)-2-fluorophenyl)-3-(4-(piperazin-1-ylmethyl)-3-(trifluoromethyl)phenyl)urea]	50 to 250	< 100
CN1CCN(Cc2ccc(NC(=O)Nc3ccc(-c4nn(C5CC5)c5ccnc(N)c45)cc3F)cc2C(F)(F)F)CC1 [Example I-31, 1-(4-(4-amino-1-cyclopropyl-1H-pyrazolo[4,3-c]pyridin-3-yl)-2-fluorophenyl)-3-(4-((4-methylpiperazin-1-yl)methyl)-3-(trifluoromethyl)phenyl)urea]	< 50	< 100
CC(c1ccc(NC(=O)Nc2ccc(-c3cn(C4CC4)c4ncnc(N)c34)cc2F)cc1C(F)(F)F)N1CCN(C)CC1 (stereo not drawn) [Example I-6, 1-(4-(4-amino-7-cyclopropyl-7H-pyrrolo[2,3-d]pyrimidin-5-yl)-2-fluorophenyl)-3-(4-(1-(4-methylpiperazin-1-yl)ethyl)-3-(trifluoromethyl)phenyl)urea]	> 1000	> 2000
CN1CCN(Cc2cc(NC(=O)Nc3ccc(-c4nn(C5CC5)c5ncnc(N)c45)cc3F)cc(C(F)(F)F)c2)CC1 [Example I-87, 1-(4-(4-amino-1-cyclopropyl-1H-pyrazolo[3,4-d]pyrimidin-3-yl)-2-fluorophenyl)-3-(3-((4-methylpiperazin-1-yl)methyl)-5-(trifluoromethyl)phenyl)urea]	> 1000	< 100
CCN1CCN(Cc2ccc(NC(=O)Nc3ccc(-c4nn(C5CC5)c5ncnc(N)c45)cc3F)cc2C(F)(F)F)CC1 [Example I-50, 1-(4-(4-amino-1-cyclopropyl-1H-pyrazolo[3,4-d]pyrimidin-3-yl)-2-fluorophenyl)-3-(4-((4-ethylpiperazin-1-yl)methyl)-3-(trifluoromethyl)phenyl)urea]	< 50	< 100
CN1CCN(C(=O)c2ccc(NC(=O)Nc3ccc(-c4nn(C5CC5)c5ncnc(N)c45)cc3F)cc2C(F)(F)F)CC1 [Example I-49, 1-(4-(4-amino-1-cyclopropyl-1H-pyrazolo[3,4-d]pyrimidin-3-yl)-2-fluorophenyl)-3-(4-(4-methylpiperazine-1-carbonyl)-3-(trifluoromethyl)phenyl)urea]	50 to 250	100 to 500
Nc1ncnc2c1c(-c1ccc(NC(=O)Nc3ccc(OC4CCN(C5COC5)CC4)c(C(F)(F)F)c3)c(F)c1)cn2C1CC1 [Example I-83, 1-(4-(4-amino-7-cyclopropyl-7H-pyrrolo[2,3-d]pyrimidin-5-yl)-2-fluorophenyl)-3-(4-((1-(oxetan-3-yl)piperidin-4-yl)oxy)-3-(trifluoromethyl)phenyl)urea]	50 to 250	100 to 500
CN1CCN(Cc2ccc(NC(=O)Nc3ccc(-c4cn(C5CCN(C)C5)c5ncnc(N)c45)cc3F)cc2C(F)(F)F)CC1 (stereo not drawn) [Example I-20, 1-(4-(4-amino-7-(1-methylpyrrolidin-3-yl)-7H-pyrrolo[2,3-d]pyrimidin-5-yl)-2-fluorophenyl)-3-(4-((4-methylpiperazin-1-yl)methyl)-3-(trifluoromethyl)phenyl)urea]	< 50	< 100
CC(C)n1nc(-c2ccc(NC(=O)Nc3ccc(CN4CCN(C)CC4)c(C(F)(F)F)c3)cc2)c2c(N)ncnc21 [Example I-24, 1-(4-(4-amino-1-isopropyl-1H-pyrazolo[3,4-d]pyrimidin-3-yl)phenyl)-3-(4-((4-methylpiperazin-1-yl)methyl)-3-(trifluoromethyl)phenyl)urea]	< 50	< 100

Source: patent publication US20240317758A1 (Halia Therapeutics, Inc., priority 2021, published 2024)
